Source: patent publication US8178506B2, “Oligomeric compounds and compositions for use in modulation of small non-coding RNAs” (Regulus Therapeutics Inc., priority 2003, dated 2012)
In the oligonucleotide strings, read from the 5' end, every base follows the letter of its sugar. An asterisk marks phosphorothioate; unmarked linkages are phosphodiester. Other units and linkages are bracketed, terminal groups are in braces. A string of capitals states the bases alone. e = 2'-O-(2-methoxyethyl) (MOE); [5mC] = 5-methylcytosine

Key:
ERK5 protein = test: Immunoblot of ERK5 protein in differentiating adipocytes; format: cell-based, human; conditions: differentiating adipocytes 7- and 10-days post-differentiation, 250 nM
Method: When miRNAs have effects on the expression of downstream genes or proteins encoded by these genes, it is advantageous to measure the protein levels of those gene products, and to do this, western blot (immunoblot) analysis is employed. Immunoblot analysis is carried out using standard methods. Briefly, preadipocytes and differentiating adipocytes were cultured as described previously, and differentiating adipocytes are sampled at several timepoints after stimulation of differentiation. Cells were treated with 250 nM oligomeric compounds and harvested 16-20 h after oligomeric compound treatment. Cells were washed, lysed in RIPA buffer with protease inhibitor cocktail (Roche Diagnostics Corporation, Indianapolis, Ind.), suspended in Laemmli buffer (20 ul/well), boiled for 5 minutes and loaded onto either an 8% SDS-PAGE or a 4-20% gradient SDS-PAGE gel. Gels are run for approximately 1.5 hours at 150 V, and transferred to PVDF membrane for western blotting. […] Bands are visualized and quantitated using a PHOSPHORIMAGER™ (Molecular Dynamics, Sunnyvale Calif.) or the ChemiDoc™ system (Bio-Rad Laboratories, Inc., Hercules, Calif.). Thus, the effects of treatment of many cell types (including, but not limited to, preadipocytes, differentiating adipocytes, HeLa, T-24 and A549 cells) with oligomeric compounds of the present invention on the levels of gene expression products can be assessed. […]

mir-21 pri-miRNA = mir-21 pri-miRNA expression in HeLa cells (real-time RT-PCR); format: cell-based, human; conditions: HeLa cells, 100 nM, real-time RT-PCR

| Substance | ERK5 protein levels vs pre-adipocytes or untreated differentiating adipocytes (ERK5 protein) | mir-21 pri-miRNA expression % UTC (mir-21 pri-miRNA) [% UTC] |
| --- | --- | --- |
| TGAGCTACAGTGCTTCATCTCA [ISIS 327901] (chemistry not given here) [uniform 2′-MOE PS; targets mir-143] | 2-2.5 fold | – |
| 327917 (antisense eT*e[5mC]*eA*eA*e[5mC]*eA*eT*e[5mC]*eA*eG*eT*e[5mC]*eT*eG*eA*eT*eA*eA*eG*e[5mC]*eT*eA) [compound 327917] | – | 249 |
